Results from PMC5743546 (Biochemistry, 2017).
Like-named read-outs stand apart in the source and are kept apart here. Each block holds one molecule with its values, some of them ahead of it.

Legend:
[1] = target: T1, CYP2J2 (Homo sapiens, UniProt P51589); experiment: biochemical; conditions: for y0 (residual rate of AA epoxidation at maximum inhibition): fit to eq S1
T1 sequence (P51589 1-502): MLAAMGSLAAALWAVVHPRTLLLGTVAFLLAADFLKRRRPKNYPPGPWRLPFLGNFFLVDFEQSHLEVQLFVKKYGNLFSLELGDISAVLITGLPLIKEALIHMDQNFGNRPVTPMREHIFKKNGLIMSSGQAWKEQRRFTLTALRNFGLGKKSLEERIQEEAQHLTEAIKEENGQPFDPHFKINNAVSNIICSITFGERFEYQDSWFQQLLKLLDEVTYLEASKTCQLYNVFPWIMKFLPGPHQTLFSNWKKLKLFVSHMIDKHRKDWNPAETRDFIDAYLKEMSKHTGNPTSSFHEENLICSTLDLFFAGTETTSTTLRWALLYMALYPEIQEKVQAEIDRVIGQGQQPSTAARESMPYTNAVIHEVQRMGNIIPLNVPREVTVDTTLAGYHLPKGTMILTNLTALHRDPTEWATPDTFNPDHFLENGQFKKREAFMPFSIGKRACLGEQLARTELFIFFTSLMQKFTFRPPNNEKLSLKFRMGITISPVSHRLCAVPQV

[2] = target: T1, CYP2J2; assay type: binding
[3] = cited from earlier work
[4] = target: T1, CYP2J2; experiment: DOX metabolism kinetics by CPR and CYP2J2; conditions: none detected by LC-MS/MS analysis
[5] = target: T1, CYP2J2; experiment: CYP2J2-mediated ebastine; assay type: biochemical
[6] = target: T1, CYP2J2
[7] = target: T1, CYP2J2; remark: listed apart in the source
[8] = substrate: COc1cccc2c1C(=O)c1c(O)c3c(c(O)c1C2=O)C[C@@](O)(C(=O)CO)C[C@@H]3O[C@H]1C[C@H](N)[C@H](O)[C@H](C)O1; experiment: purified protein, by the assay type; conditions: other: CPR with CYP2J2; hyperbolic curve

Ki [2]: > 200 µM
inhibition of DOX binding to CYP2J2 (in words) ([2]; 100 μM AA, 1 μM DOX): weakly inhibits
Molecule: CCCCC/C=C\C/C=C\C/C=C\C/C=C\CCCC(=O)O [AA, arachidonic acid]

IC50 [1]: 27.4 ± 0.03 µM
Ki [1]: 15.6 ± 0.02 µM
Molecule: COc1cccc2c1C(=N)c1c(O)c3c(c(O)c1C2=O)C[C@@](O)(C(C)=O)C[C@@H]3O[C@H]1C[C@H](N)[C@H](O)[C@H](C)O1 [5-IDN, 5-iminodaunorubicin]

Kd [2]: 13.1 ± 1.1 µM
NADPH oxidation on addition of CYP2J2 (in words) [6]: does not increase
metabolism by CYP2J2 to form new products (in words) [7]: does not metabolize
IC50 [1]: 10.2 ± 0.1 µM
Ki [1]: 5.78 ± 0.03 µM
Molecule: COc1cccc2c1C(=O)c1c(O)c3c(c(O)c1C2=O)CC(O)(C(=O)CO)CC3 (stereo not drawn) [7-de-aDOX, 7-deoxydoxorubicin aglycone]

Further lines, the molecule ahead of its results:

Molecule: COc1cccc2c1C(=O)c1c(O)c3c(c(O)c1C2=O)C[C@@](O)(/C(C)=N/NC(=O)c1ccccc1)C[C@@H]3O[C@H]1C[C@H](N)[C@H](O)[C@H](C)O1 [ZRN, zorubicin]
IC50 [1]: 6.46 ± 0.03 µM
Ki [1]: 3.67 ± 0.02 µM
change in the regioselectivity of AA epoxidation (in words) ([1]; 100 μM AA, 0–50 μM anthracycline): not a significant change
y0 (residual rate of AA epoxidation at maximum inhibition) ([1]; 100 μM AA): 18.7 ± 3.5 pmol (min)^−1 (nmolCYP2J2)^−1

Molecule: COc1cccc2c1C(=O)c1c(O)c3c(c(O)c1C2=O)C[C@@](O)(C(=O)CO)C[C@@H]3O[C@H]1C[C@H](N)[C@H](O)[C@H](C)O1 [DOX, doxorubicin]
plasma levels upon immediate exposure [3]: 1000 to 10000 nM
toxic cumulative dose [3]: ~ 50 μM
metabolism by CYP2J2 to form new products (in words) [4]: does not metabolize
Kd [2]: 5.32 ± 0.89 µM
r0 (intrinsic polarization value) ([2]; 1 μM DOX or 7-de-aDOX, 37°C, with 100 μM AA or 60 μM EBS where indicated): 0.083 ± 0.007
r1 (maximum polarization value) ([2]; 1 μM DOX or 7-de-aDOX, one-site fit): 0.219 ± 0.010
IC50 [1]: 5.48 ± 0.04 µM
Ki [1]: 3.11 ± 0.02 µM
enzyme activity retained in the presence of saturating amounts ([1]; 100 μM AA): 23%
y0 (residual rate of AA epoxidation at maximum inhibition) ([1]; 100 μM AA): 19.8 ± 3.8 pmol (min)^−1 (nmolCYP2J2)^−1
IC50 [5]: 17.9 µM
Ki [5]: 8.97 ± 0.01 µM
y0 (residual rate of EBS metabolism) ([5]; 20 μM EBS, fit to eq S1): 5.87 ± 2.84

B1: CYP2J2 (Homo sapiens) (protein)
chain: MLAAMGSLAAALWAVVHPRTLLLGTVAFLLAADFLKRRRPKNYPPGPWRLPFLGNFFLVDFEQSHLEVQLFVKKYGNLFSLELGDISAVLITGLPLIKEALIHMDQNFGNRPVTPMREHIFKKNGLIMSSGQAWKEQRRFTLTALRNFGLGKKSLEERIQEEAQHLTEAIKEENGQPFDPHFKINNAVSNIICSITFGERFEYQDSWFQQLLKLLDEVTYLEASKTCQLYNVFPWIMKFLPGPHQTLFSNWKKLKLFVSHMIDKHRKDWNPAETRDFIDAYLKEMSKHTGNPTSSFHEENLICSTLDLFFAGTETTSTTLRWALLYMALYPEIQEKVQAEIDRVIGQGQQPSTAARESMPYTNAVIHEVQRMGNIIPLNVPREVTVDTTLAGYHLPKGTMILTNLTALHRDPTEWATPDTFNPDHFLENGQFKKREAFMPFSIGKRACLGEQLARTELFIFFTSLMQKFTFRPPNNEKLSLKFRMGITISPVSHRLCAVPQV
Km [8]: 10.4 ± 1.6 µM
